Experimental data published in the NIST ThermoML archive (doi:10.1021/acs.jced.8b00537).

Test: xn = mol fraction of the nth substance listed
Conditions: 100 kPa, Liquid; for speed of sound: Frequency=3 MHz, Single path-length method; for mass density: Vibrating tube method; for viscosity: Capillary tube (Ostwald / Ubbelohde) method

CC[S+](CC)CC.O=S(=O)([N-]S(=O)(=O)C(F)(F)F)C(F)(F)F [triethylsulfonium bis((trifluoromethyl)sulfonyl)imide] + CCCO
Conditions | mass density [kg/m3] | speed of sound [m/s] | viscosity [mPa·s]
318.15 K, x1 = 0.04926 | 888 | – | –
318.15 K, x1 = 0.1003 | 974 | – | –
318.15 K, x1 = 0.1993 | 1097 | – | –
318.15 K, x1 = 0.3008 | 1185 | – | –
318.15 K, x1 = 0.3991 | 1249 | – | –
318.15 K, x1 = 0.5023 | 1300 | 1164.2 | –
318.15 K, x1 = 0.5987 | 1338 | 1171.9 | –
318.15 K, x1 = 0.6987 | 1371 | 1179.6 | –
318.15 K, x1 = 0.7947 | 1397 | 1185.8 | –
318.15 K, x1 = 0.903 | 1422 | 1191.9 | –
318.15 K, x1 = 1 | 1441 | 1203.1 | –
323.15 K, x1 = 0.04926 | 884 | 1113.8 | 1.404
323.15 K, x1 = 0.1003 | 969 | 1109.1 | 1.833
323.15 K, x1 = 0.1993 | 1092 | 1117.1 | 2.651
323.15 K, x1 = 0.3008 | 1180 | 1129.2 | –
323.15 K, x1 = 0.3991 | 1244 | 1141.1 | 4.67
323.15 K, x1 = 0.5023 | 1295 | 1152.9 | 5.379
323.15 K, x1 = 0.5987 | 1334 | 1160.8 | 6.831
323.15 K, x1 = 0.6987 | 1366 | 1168.8 | 8.347
323.15 K, x1 = 0.7947 | 1392 | 1175.2 | 10.12
323.15 K, x1 = 0.903 | 1417 | 1181.5 | 12.31
323.15 K, x1 = 1 | 1436 | 1193.7 | 14.31
328.15 K, x1 = 0.04926 | 879 | 1098.6 | 1.268
328.15 K, x1 = 0.1003 | 965 | 1095.1 | 1.648
328.15 K, x1 = 0.1993 | 1087 | 1104.3 | 2.38
328.15 K, x1 = 0.3008 | 1175 | 1117.2 | 3.13
328.15 K, x1 = 0.3991 | 1239 | 1129.5 | 4.187
328.15 K, x1 = 0.5023 | 1290 | 1141.6 | 4.822
328.15 K, x1 = 0.5987 | 1329 | 1149.9 | 6.099
328.15 K, x1 = 0.6987 | 1362 | 1158.1 | 7.438
328.15 K, x1 = 0.7947 | 1388 | 1164.7 | 8.976
328.15 K, x1 = 0.903 | 1412 | 1171.2 | 10.86
328.15 K, x1 = 1 | 1431 | 1184.7 | 12.5
333.15 K, x1 = 0.04926 | 875 | 1083.4 | 1.149
333.15 K, x1 = 0.1003 | 960 | 1081.1 | 1.489
333.15 K, x1 = 0.1993 | 1082 | 1091.5 | 2.148
333.15 K, x1 = 0.3008 | 1170 | 1105.2 | 2.825
333.15 K, x1 = 0.3991 | 1234 | 1118 | 3.775
333.15 K, x1 = 0.5023 | 1285 | 1130.5 | 4.346
333.15 K, x1 = 0.5987 | 1324 | 1139.1 | 5.483
333.15 K, x1 = 0.6987 | 1357 | 1147.5 | 6.667
333.15 K, x1 = 0.7947 | 1383 | 1154.3 | 8.024
333.15 K, x1 = 0.903 | 1407 | 1161 | 9.653
333.15 K, x1 = 1 | 1427 | 1175.9 | 10.99
338.15 K, x1 = 0.04926 | 870 | 1068.2 | 1.044
338.15 K, x1 = 0.1003 | 955 | 1067.1 | 1.352
338.15 K, x1 = 0.1993 | 1078 | 1078.7 | 1.95
338.15 K, x1 = 0.3008 | 1166 | 1093.3 | 2.563
338.15 K, x1 = 0.3991 | 1229 | 1106.6 | 3.422
338.15 K, x1 = 0.5023 | 1281 | 1119.3 | 3.941
338.15 K, x1 = 0.5987 | 1319 | 1128.3 | 4.956
338.15 K, x1 = 0.6987 | 1352 | 1137 | 6.007
338.15 K, x1 = 0.7947 | 1378 | 1144 | 7.206
338.15 K, x1 = 0.903 | 1403 | 1150.8 | 8.628
338.15 K, x1 = 1 | 1422 | 1166.8 | 9.726
343.15 K, x1 = 0.04926 | 866 | 1052.9 | 0.953
343.15 K, x1 = 0.1003 | 951 | 1053.3 | 1.232
343.15 K, x1 = 0.1993 | 1073 | 1066.2 | 1.778
343.15 K, x1 = 0.3008 | 1161 | 1081.5 | 2.339
343.15 K, x1 = 0.3991 | 1224 | 1095.4 | 3.123
343.15 K, x1 = 0.5023 | 1276 | 1108.3 | 3.594
343.15 K, x1 = 0.5987 | 1315 | 1117.8 | 4.507
343.15 K, x1 = 0.6987 | 1347 | 1126.8 | 5.444
343.15 K, x1 = 0.7947 | 1373 | 1134 | 6.506
343.15 K, x1 = 0.903 | 1398 | 1141 | 7.766
343.15 K, x1 = 1 | 1417 | 1157.6 | 8.659
